Laboratory results as given in patent US20130338183A1, “COMPOSITIONS AND METHODS FOR MOBILIZING STEM CELLS” (The Johns Hopkins University, priority 2010, published 2013).

Test system: Lin-CD133+ cells in peripheral blood
Assay: Mobilization of bone marrow stem cells: Lin-CD133+ cells in peripheral blood by CBC and flow cytometry after subcutaneous injection
Format: in vivo
Details: low dose FK-506 (0.05 mg/kg, 0.1 mg/kg) subcutaneous, 3 hours after injection, Lewis rats
From the text: Rat Strains and Care. Lewis (RT1^1) rats were purchased from Harlan ague-Dawley (Indianapolis, Ind.) and used at 8-10 weeks of age. Animals were maintained in the specific pathogen-free facility of Johns Hopkins Medical Institutions. Animals were cared for according to NIH guidelines and under a protocol approved by the Johns Hopkins University Animal Care Committee.
Experimental Groups and Animal Treatment. Lewis rats were divided by six groups including control group (treated with same volume of saline) and low dose of FK-506 (0.05 mg, 0.1 mg or 1.0 mg/kg). FK506 was injected subcutaneously. Animals were sacrificed at 3 hours after injection. Spleen and peripheral blood were collected. Blood cell count was performed in animal pathology laboratory at Johns Hopkins.
Flow Cytometry. Single-cell suspensions (5×10^5) of peripheral blood monocytes were analyzed for lineage negative and CD133 expression. Nonspecific antibody binding was blocked with goat and rat serum (Sigma) for 30 minutes.
In this study, lineage negative (Lin−) CD133+ stem cell population in peripheral blood and spleen were quantified after FK-506 treatment. Complete blood count (CBC) was measured and stem cell markers were quantified by flow cytometry. The absolute number of stem cells was calculated as WBC (−thous./uL)×% of stem cells.

## C=CC[C@@H]1/C=C(\C)C[C@H](C)C[C@H](OC)[C@H]2O[C@@](O)(C(=O)C(=O)N3CCCC[C@H]3C(=O)O[C@H](/C(C)=C/[C@@H]3CC[C@@H](O)[C@H](OC)C3)[C@H](C)[C@@H](O)CC1=O)[C@H](C)C[C@@H]2OC [FK-506, Tacrolimus]
  increase of absolute number of Lin-CD133+ cells in peripheral blood compared to saline treated animals: about 3 times
